PubChem BioAssay AID1963832 (Molecular Pharmacology Branch, DTP, NCI, 2024)

Tested on: 885724-159-R-J1-PDC complex spheroid viability
Experiment: Anticancer human tumor 885724-159-R-J1-PDC patient-derived pancreatic adenocarcinoma cell line growth inhibition [POLQ]
Settings: for IC50: curve of first compound; for viability, T/C: stronger effect = lower value
Method in brief: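 PDC + HUVEC + MSC complex spheroids; POLQ inhibitors ± partner drugs; top conc. at/near clinical Cmax, else 10 microM (SN-38 1 microM), half-log dilutions; 37 degrees C, 5% CO2.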

[1] = second compound 0.0316 µM, first compound 0.0316 µM
[2] = second compound 0.0316 µM, first compound 0.1 µM
[3] = second compound 0.0316 µM, first compound 0.316 µM
[4] = second compound 0.0316 µM, first compound 1 µM
[5] = second compound 0.0316 µM, first compound 3.16 µM
[6] = second compound 0.0316 µM, first compound 10 µM
[7] = second compound 0.1 µM, first compound 0.0316 µM
[8] = second compound 0.1 µM, first compound 0.1 µM
[9] = second compound 0.1 µM, first compound 0.316 µM
[10] = second compound 0.1 µM, first compound 1 µM
[11] = second compound 0.1 µM, first compound 3.16 µM
[12] = second compound 0.1 µM, first compound 10 µM
[13] = second compound 0.316 µM, first compound 0.0316 µM
[14] = second compound 0.316 µM, first compound 0.1 µM
[15] = second compound 0.316 µM, first compound 0.316 µM
[16] = second compound 0.316 µM, first compound 1 µM
[17] = second compound 0.316 µM, first compound 3.16 µM
[18] = second compound 0.316 µM, first compound 10 µM
[19] = second compound 1 µM, first compound 0.0316 µM
[20] = second compound 1 µM, first compound 0.1 µM
[21] = second compound 1 µM, first compound 0.316 µM
[22] = second compound 1 µM, first compound 1 µM
[23] = second compound 1 µM, first compound 3.16 µM
[24] = second compound 1 µM, first compound 10 µM
[25] = second compound 3.16 µM, first compound 0.0316 µM
[26] = second compound 3.16 µM, first compound 0.1 µM
[27] = second compound 3.16 µM, first compound 0.316 µM
[28] = second compound 3.16 µM, first compound 1 µM
[29] = second compound 3.16 µM, first compound 3.16 µM
[30] = second compound 3.16 µM, first compound 10 µM
[31] = second compound 10 µM, first compound 0.0316 µM
[32] = second compound 10 µM, first compound 0.1 µM
[33] = second compound 10 µM, first compound 0.316 µM
[34] = second compound 10 µM, first compound 1 µM
[35] = second compound 10 µM, first compound 3.16 µM
[36] = second compound 10 µM, first compound 10 µM
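Also: spheroids exposed to compounds for 7 days.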

Compound: CC(C)n1c(=O)n(C)c2cnc3cc(F)c(-c4ccc(OCCCN5CCCCC5)nc4)cc3c21 + Cc1cccc(N(C)C(=O)C2C(O)CCN2c2nc(C)cc(C(F)(F)F)c2C#N)c1
- IC50 (second compound 0.0316 µM): > 10 µM
- IC50 (second compound 0.1 µM): > 10 µM
- IC50 (second compound 0.316 µM): > 10 µM
- IC50 (second compound 1 µM): > 10 µM
- IC50 (second compound 3.16 µM): > 10 µM
- IC50 (second compound 10 µM): > 10 µM
- viability, T/C [1]: 104%
- viability, T/C [2]: 104%
- viability, T/C [3]: 99.9%
- viability, T/C [4]: 97.8%
- viability, T/C [5]: 93.9%
- viability, T/C [6]: 68.8%
- viability, T/C [7]: 108%
- viability, T/C [8]: 95.8%
- viability, T/C [9]: 109%
- viability, T/C [10]: 91.2%
- viability, T/C [11]: 96.8%
- viability, T/C [12]: 72.2%
- viability, T/C [13]: 109%
- viability, T/C [14]: 102%
- viability, T/C [15]: 102%
- viability, T/C [16]: 98.8%
- viability, T/C [17]: 99.3%
- viability, T/C [18]: 66.6%
- viability, T/C [19]: 104%
- viability, T/C [20]: 100%
- viability, T/C [21]: 104%
- viability, T/C [22]: 116%
- viability, T/C [23]: 87.7%
- viability, T/C [24]: 60.2%
- viability, T/C [25]: 106%
- viability, T/C [26]: 112%
- viability, T/C [27]: 107%
- viability, T/C [28]: 102%
- viability, T/C [29]: 86.2%
- viability, T/C [30]: 61.3%
- viability, T/C [31]: 106%
- viability, T/C [32]: 95.4%
- viability, T/C [33]: 111%
- viability, T/C [34]: 101%
- viability, T/C [35]: 88.9%
- viability, T/C [36]: 60.7%

Compound: CC1COCCN1c1cc(C2(S(C)(=N)=O)CC2)nc(-c2ccnc3[nH]ccc23)n1 (stereo unspecified) + Cc1cccc(N(C)C(=O)C2C(O)CCN2c2nc(C)cc(C(F)(F)F)c2C#N)c1
- IC50 (second compound 0.0316 µM): > 10 µM
- IC50 (second compound 0.1 µM): > 10 µM
- IC50 (second compound 0.316 µM): 9.04 µM
- IC50 (second compound 1 µM): 5.33 µM
- IC50 (second compound 3.16 µM): > 10 µM
- IC50 (second compound 10 µM): > 10 µM
- viability, T/C [1]: 105%
- viability, T/C [2]: 97.3%
- viability, T/C [3]: 89%
- viability, T/C [4]: 72%
- viability, T/C [5]: 58%
- viability, T/C [6]: 51.7%
- viability, T/C [7]: 103%
- viability, T/C [8]: 94.1%
- viability, T/C [9]: 97.9%
- viability, T/C [10]: 65.4%
- viability, T/C [11]: 55.2%
- viability, T/C [12]: 53.8%
- viability, T/C [13]: 108%
- viability, T/C [14]: 102%
- viability, T/C [15]: 92.5%
- viability, T/C [16]: 72.9%
- viability, T/C [17]: 55.9%
- viability, T/C [18]: 49.7%
- viability, T/C [19]: 109%
- viability, T/C [20]: 93.6%
- viability, T/C [21]: 97%
- viability, T/C [22]: 71.8%
- viability, T/C [23]: 52.3%
- viability, T/C [24]: 47.2%
- viability, T/C [25]: 98.5%
- viability, T/C [26]: 95.6%
- viability, T/C [27]: 92.8%
- viability, T/C [28]: 73.8%
- viability, T/C [29]: 51.7%
- viability, T/C [30]: 51.3%
- viability, T/C [31]: 92.2%
- viability, T/C [32]: 97.2%
- viability, T/C [33]: 91.5%
- viability, T/C [34]: 68.2%
- viability, T/C [35]: 56.4%
- viability, T/C [36]: 50.4%

Compound: CCc1cc2c(N3CCc4c(cc(Cn5ccnc5)cc4-c4cn(C)nc4C(F)(F)F)C3=O)ccnc2c(OC)n1 + Cc1cccc(N(C)C(=O)C2C(O)CCN2c2nc(C)cc(C(F)(F)F)c2C#N)c1
- IC50 (second compound 0.0316 µM): > 10 µM
- IC50 (second compound 0.1 µM): > 10 µM
- IC50 (second compound 0.316 µM): > 10 µM
- IC50 (second compound 1 µM): > 10 µM
- IC50 (second compound 3.16 µM): > 10 µM
- IC50 (second compound 10 µM): > 10 µM
- viability, T/C [1]: 94%
- viability, T/C [2]: 82.9%
- viability, T/C [3]: 81.8%
- viability, T/C [4]: 89.2%
- viability, T/C [5]: 74.3%
- viability, T/C [6]: 78.4%
- viability, T/C [7]: 104%
- viability, T/C [8]: 81.7%
- viability, T/C [9]: 88.6%
- viability, T/C [10]: 83.6%
- viability, T/C [11]: 84.7%
- viability, T/C [12]: 63.8%
- viability, T/C [13]: 96%
- viability, T/C [14]: 89.9%
- viability, T/C [15]: 84.4%
- viability, T/C [16]: 89.1%
- viability, T/C [17]: 82.5%
- viability, T/C [18]: 59.5%
- viability, T/C [19]: 83.8%
- viability, T/C [20]: 84.7%
- viability, T/C [21]: 92.4%
- viability, T/C [22]: 79.7%
- viability, T/C [23]: 85.5%
- viability, T/C [24]: 62.8%
- viability, T/C [25]: 94.2%
- viability, T/C [26]: 85.5%
- viability, T/C [27]: 86.6%
- viability, T/C [28]: 89.7%
- viability, T/C [29]: 79.4%
- viability, T/C [30]: 72.6%
- viability, T/C [31]: 92.8%
- viability, T/C [32]: 83.7%
- viability, T/C [33]: 86.4%
- viability, T/C [34]: 87.8%
- viability, T/C [35]: 72.7%
- viability, T/C [36]: 63.5%
